Laboratory results published in patent publication US20250353873A1, “COMPOUNDS AND METHODS FOR MODULATING APOE EXPRESSION” (Ionis Pharmaceuticals, Inc., priority 2024, published 2025).
Strand notation (5' to 3'): a small letter for the sugar, then the base; units joined by * are phosphorothioate-linked, units joined directly phosphodiester-linked; [ ] holds rarer units or linkages, { } end groups; capitals alone tell only the bases. [ms] = mesyl phosphoramidate linkage; k = constrained ethyl (cEt); [5mC] = 5-methylcytosine; d = 2'-deoxy (DNA)

What was measured:
human APOE RNA [1] = experiment: Dose-dependent inhibition of human APOE RNA in HepG2 cells, electroporation, 50,000 cells per well, RT-PCR normalized to GAPDH (Example 4, Tables 8-10); type: cell-based; conditions: HepG2, electroporation, 24-hour treatment
Experimental: Modified oligonucleotides selected from the examples above were tested at various doses in HepG2 cells. The modified oligonucleotides were tested in a series of experiments that had the same culture conditions. Each experiment is identified in separate tables below.
HepG2 cells plated at a density of 50,000 cells per well were treated by electroporation with various concentrations of modified oligonucleotide as specified in the tables below. […] APOE RNA levels were measured using the human primer probe set RTS3073 (forward sequence […], designated herein as SEQ ID NO: 7; reverse sequence CCATCAGCGCCCTCAGTT, designated herein as SEQ ID NO: 8; probe sequence […], designated herein as SEQ ID NO:9). APOE RNA levels were normalized to human GAPDH. […] Results are presented as percent APOE RNA, relative to the amount of APOE RNA in untreated control cells (UTC).

human APOE RNA [2] = experiment: Activity in APOE C57BL/6NTac-Apoeem7250 knock-in mice, single ICV bolus, 4 weeks (Example 10); type: in vivo; conditions: single ICV bolus 300 μg, 4 weeks post treatment, normalized to mouse Ppia
Experimental: Modified oligonucleotides described above were tested in the APOE C57BL/6NTac-Apoeem7250 knock-in mouse model described above.
APOE C57BL/6NTac-Apoeem7250 knock-in mice were divided into groups of 2-4 mice each. Each mouse received a single ICV bolus of 300 μg of modified oligonucleotide. A group of 3-4 mice received a single ICV bolus with PBS as a negative control.
Four weeks post treatment, mice were sacrificed and RNA was extracted from cortical brain tissue and spinal cord for quantitative real-time RT-PCR analysis of RNA expression of APOE using human primer probe set RTS3073 (described herein above). APOE RNA levels were normalized to mouse Ppia. Mouse Ppia was amplified using primer probe set m_cyclo24 (described herein above). Results are presented as percent human APOE RNA relative to the amount of human APOE RNA in PBS treated animals, (% control). Each experiment is identified in separate tables below.

Substance | APOE RNA (% UTC) (human APOE RNA [1]; 5 nM) | APOE RNA (% UTC) (human APOE RNA [1]; 13 nM) | APOE RNA (% UTC) (human APOE RNA [1]; 33 nM) | APOE RNA (% UTC) (human APOE RNA [1]; 82 nM) | APOE RNA (% UTC) (human APOE RNA [1]; 205 nM) | APOE RNA (% UTC) (human APOE RNA [1]; 512 nM) | APOE RNA (% UTC) (human APOE RNA [1]; 1,280 nM) | APOE RNA (% UTC) (human APOE RNA [1]; 3,200 nM) | APOE RNA (% UTC) (human APOE RNA [1]; 8,000 nM) | APOE RNA (% UTC) (human APOE RNA [1]; 20,000 nM) | IC50 (human APOE RNA [1]) [nM] | APOE RNA (% control) Cortex (human APOE RNA [2]) [% control] | APOE RNA (% control) Spinal Cord (human APOE RNA [2]) [% control]
1746806 (k[5mC]*kT*dT[ms]dG[ms]kG*dT[ms]dG[ms]dA[ms]dA[ms]dT*d[5mC]*dT*dT*dT*dA[ms]dT*dT[ms]kA*kA*kA; antisense) [Compound 1746806] | 122 | 101 | 107 | 91 | 83 | 80 | 57 | 39 | 25 | 37 | 2580 | 92 | 75
1746794 (k[5mC]*kT*kT*dG[ms]dG[ms]dT[ms]dG[ms]dA[ms]dA[ms]dT*d[5mC]*dT*dT*dT*dA[ms]dT*kT*dA[ms]kA*kA; antisense) [Compound 1746794] | 119 | 107 | 94 | 91 | 67 | 72 | 37 | 16 | 9 | 3 | 800 | 76 | 41
1746796 (k[5mC]*kT*dT[ms]dG[ms]kG*dT[ms]dG[ms]dA[ms]dA[ms]dT*d[5mC]*dT*dT*dT*dA[ms]dT*kT*dA[ms]kA*kA; antisense) [Compound 1746796] | 110 | 126 | 128 | 137 | 119 | 89 | 71 | 40 | 28 | 20 | 3010 | 81 | 68
1746792 (k[5mC]*dT[ms]dT[ms]kG*dG[ms]kT*dG[ms]dA[ms]dA[ms]dT*d[5mC]*dT*dT*dT*dA[ms]dT*kT*kA*dA[ms]kA; antisense) [Compound 1746792] | 80 | 102 | 90 | 87 | 68 | 44 | 17 | 12 | 8 | 6 | 400 | 71 | 49
1746787 (k[5mC]*kT*dT[ms]dG[ms]dG[ms]kT*dG[ms]dA[ms]dA[ms]dT*d[5mC]*dT*dT*dT*dA[ms]dT*kT*kA*dA[ms]kA; antisense) [Compound 1746787] | 148 | 108 | 92 | 97 | 87 | 68 | 56 | 37 | 11 | 14 | 1520 | 76 | 71
1746802 (k[5mC]*dT[ms]dT[ms]dG[ms]kG*kT*dG[ms]dA[ms]dA[ms]dT*d[5mC]*dT*dT*dT*dA[ms]dT*kT*dA[ms]kA*kA; antisense) [Compound 1746802] | 76 | 108 | 74 | 72 | 58 | 57 | 36 | 47 | 39 | 3 | 780 | 72 | 52
